Measured values published in patent US8178579B2, “Dioxanes and uses thereof” (President and Fellows of Harvard College, priority 2001, dated 2012).
Entries after “also recorded” stand apart in the source; their conditions may differ. Non-standard residues stand in square brackets, D forms with d. Residues, ends and D or L forms follow the SMILES beside them. Aoe = N[C@@H](CCCCCC(=O)[C@@H]1CO1)C(=O)O

Experiments:
A549 cells = experiment: mitotic abnormalities by immunofluorescence; format: cell-based, human; settings: 18 h or 24 h treatment, TSA 10 μM in FIG. 42C
Protocol: Detection of acetylated α-tubulin and acetylated histones by immunofluorescence was performed as described in Example 6 above. For determining microtubule stability, A549 cells were treated as indicated, fixed in glutaraldehyde, and stained for acetylated α-tubulin and total α-tubulin in antibody dilution buffer (ADB, Tris-buffered saline (TBS), 0.15 M NaCl, 0.02 M Tris-Cl, pH 7.4, with 2% bovine serum albumin and 0.1% Triton-X 100). For cold-depolymerization, cells were incubated at 4° C. or 37° C. for an additional 90 minutes before fixation. For calcium depolymerization, cells were incubated at 37° C. for 10 minutes in a microtubule-stabilizing buffer (0.2% NP-40, 5 mM MgCl2, 2 mM EGTA, 2 M glycerol, 100 mM PIPES, pH 6.8) with and without the addition of CaCl2 (2 mM) before glutaraldehyde fixation. For co-localization experiments, biotubacin (50 μM) treated A549 cells were fixed in 3.7% formaldehyde in TBS and processed as for detecting acetylated α-tubulin (See Example 6 above) with biotubacin detected using streptavidin-TR (1:500). HDAC6 was detected using a rabbit polyclonal antibody (1:250-1:750; C.M.G., unpublished data) under the conditions used to detect acetylated α-tubulin (See Example 6 above). Filamentous actin in HT-1080 cells was detected using TR-conjugated phalloidin (1 μg/mL), and depolymerized actin using FITC-conjugated deoxyribonuclease (10 μg/mL), following fixation in 3.7% formaldehyde in TBS. p58 (1:100) in NIH-3T3 cells was detected after fixation in 3.7% formaldehyde in TBS. Images for these experiments were collected on a Zeiss LSM510 confocal scanning laser microscope at the appropriate wavelengths using the accompanying software and processed with Adobe Photoshop. Deconvoluted serial images of TSA and DMSO treated A549 cells were obtained by taking sections (8μ) on a Zeiss Axioskop 2 microscope using an AxioCam camera and the accompanying software. Rat hippocampal neuronal cultures were fixed at room temperature for 15 min in phosphate-buffered saline (PBS) containing 4% paraformaldehyde. […]

α-tubulin deacetylation = experiment: acetylated α-tubulin in cells (AcTubulin cytoblot, immunofluorescence, Western blot); format: cell-based, human; settings: for effect on tubulin deacetylation / α-tubulin acetylation in cells: A549 (also BS-C-1) cells, tubacin/JCWII114, niltubacin/JCWII153 2 μM, TSA 100 nM-4 μM, library ~2-5 μM, 18 h
Protocol: (§1) A549 cells were seeded at a density of 4,000 cells/50 μl in DMEM+ in white tissue culture-treated 384-well plates (Nalge Nunc) using a Multidrop 384 liquid dispenser (Labsystems). Library small molecules were pinned twice (100-150 nl/pin) from ˜1 mM stock solutions (DMSO) and incubated for 18 hours. For the ITSA1+AcTubulin assay, ITSA1 (50 μM) was added four hours after pin-transfer of library molecules. Media was aspirated with a 16-channel wand. For the acetylated α-tubulin cytoblot (AcTubulin), 40 μl/well of fixation solution (3.7% formaldehyde (1:10 from 37% stock) in Tris-buffered saline (TBS, 0.15 M NaCl, 0.02 M Tris-Cl, pH 7.4) was added and plates incubated for twenty minutes at room temperature. After aspiration, 30 μl 100% methanol (−20° C.) was added and incubated for five minutes at room temperature. After aspirating and washing three times with 90 μl of antibody dilution buffer (ADB, TBS/2% bovine serum albumin, 0.1% TritonX-100) the wells were blocked for twenty minutes in ADB. After aspirating, 20 μl/well of ADB containing anti-acetylated α-tubulin antibody (mouse; 1:1000) and anti-mouse IgG horseradish peroxidase (HRP)-conjugated antibody (1:750) was added and incubated overnight (4° C.). For the anti-acetyl lysine cytoblot (AcLysine), 40 μl/well of fixation solution (95% ethanol/5% acetic acid, −20° C.) was added and plates incubated for five minutes at room temperature. Wells were aspirated, washed, and blocked in ADB as for the AcTubulin protocol. After aspirating, 20 μl/well of ADB containing anti-acetylated lysine (rabbit; 1:375) and anti-rabbit IgG-HRP conjugated antibody (1:750) was added and incubated overnight (4° C.). For the anti-acetylated histone H3 (AcHistH3) and anti-acetylated histone H4 (AcHistH4) cytoblots, cells were fixed, washed, and blocked in ADB as for the AcLysine cytoblot. After aspirating, 20 μl/well of ADB containing anti-acetylated histone H3 antibody (rabbit, 1:500) or anti-acetylated histone H4 antibody (rabbit, 1:500) was added and incubated for two hours at room temperature. Wells were aspirated and washed twice with 80 μl of ADB. After aspirating, 20 μl/well of ADB containing anti-rabbit IgG-HRP conjugated antibody (1:1000) was added and incubated for two hours (room temperature). For the AcTubulin and AcLysine assays, plates were washed three times with TBS before adding 20 μl/well of enhanced chemiluminescent (ECL) mixture. For the AcHistH3 and AcHistH4 assays, plates were washed three times with 80 μl TBS with 1% Triton X-100 and once with 80 μl TBS before adding 20 μl/well of ECL mixture. Plates were read on an Analyst plate reader (LJL Biosystems) with an integration time of 0.1 seconds.
(§2) 1,3-dioxanes from single polystyrene macrobeads were prepared as 1-2 mM stock solutions in DMSO as described [Hubbert, C., Guardiola, A., Shao, R., Kawaguchi, Y., Ito, A., Nixon, A., Yoshida, M., Wang, X. F., and Yao, T. P. (2002). HDAC6 is a microtubule-associated deacetylase. Nature 417, 455-458]. Bead decoding and structure determination were as described [See for example, Hubbert, C., Guardiola, A., Shao, R., Kawaguchi, Y., Ito, A., Nixon, A., Yoshida, M., Wang, X. F., and Yao, T. P. (2002). HDAC6 is a microtubule-associated deacetylase. Nature 417, 455-458; and Piperno, G., LeDizet, M., and Chang, X. J. (1987). Microtubules containing acetylated alpha-tubulin in mammalian cells in culture. J. Cell Biol. 104, 289-302]. Small molecules (˜2-5 μM) of interest were retested using a sample from the plate of stock solutions by fluorescence microscopy and comparison to the effects of trichostatin (300 nM to 1 μM).
(§3) A549 cells were seeded at a density of 50,000/200 μl in DMEM+ on the surface of glass coverslips on top of Parafilm in a 10 cm dish and allowed to attach overnight. For detection of acetylated α-tubulin, cells were permeabilized and fixed with 100 mM K-PIPES, pH 6.8, 10 mM EGTA, 1 mM MgCl2, 0.2% triton X-100, 0.2% glutaraldehyde for fifteen minutes. […]

HDAC6F = target: T1, HDAC6F (Homo sapiens, UniProt Q9UBN7); experiment: in vitro tubulin deacetylase (TDAC) assay, immunoprecipitated wild-type HDAC6F, MAP-stabilized tubulin; format: biochemical; settings: TSA 300 nM or 1 μM, tubacin, niltubacin, trapoxin B 1 μM
T1 construct: made in house; host or cells: TAg Jurkat cells, transient transfection, anti-FLAG M2 immunoprecipitation
T1 sequence (Q9UBN7 1-1215): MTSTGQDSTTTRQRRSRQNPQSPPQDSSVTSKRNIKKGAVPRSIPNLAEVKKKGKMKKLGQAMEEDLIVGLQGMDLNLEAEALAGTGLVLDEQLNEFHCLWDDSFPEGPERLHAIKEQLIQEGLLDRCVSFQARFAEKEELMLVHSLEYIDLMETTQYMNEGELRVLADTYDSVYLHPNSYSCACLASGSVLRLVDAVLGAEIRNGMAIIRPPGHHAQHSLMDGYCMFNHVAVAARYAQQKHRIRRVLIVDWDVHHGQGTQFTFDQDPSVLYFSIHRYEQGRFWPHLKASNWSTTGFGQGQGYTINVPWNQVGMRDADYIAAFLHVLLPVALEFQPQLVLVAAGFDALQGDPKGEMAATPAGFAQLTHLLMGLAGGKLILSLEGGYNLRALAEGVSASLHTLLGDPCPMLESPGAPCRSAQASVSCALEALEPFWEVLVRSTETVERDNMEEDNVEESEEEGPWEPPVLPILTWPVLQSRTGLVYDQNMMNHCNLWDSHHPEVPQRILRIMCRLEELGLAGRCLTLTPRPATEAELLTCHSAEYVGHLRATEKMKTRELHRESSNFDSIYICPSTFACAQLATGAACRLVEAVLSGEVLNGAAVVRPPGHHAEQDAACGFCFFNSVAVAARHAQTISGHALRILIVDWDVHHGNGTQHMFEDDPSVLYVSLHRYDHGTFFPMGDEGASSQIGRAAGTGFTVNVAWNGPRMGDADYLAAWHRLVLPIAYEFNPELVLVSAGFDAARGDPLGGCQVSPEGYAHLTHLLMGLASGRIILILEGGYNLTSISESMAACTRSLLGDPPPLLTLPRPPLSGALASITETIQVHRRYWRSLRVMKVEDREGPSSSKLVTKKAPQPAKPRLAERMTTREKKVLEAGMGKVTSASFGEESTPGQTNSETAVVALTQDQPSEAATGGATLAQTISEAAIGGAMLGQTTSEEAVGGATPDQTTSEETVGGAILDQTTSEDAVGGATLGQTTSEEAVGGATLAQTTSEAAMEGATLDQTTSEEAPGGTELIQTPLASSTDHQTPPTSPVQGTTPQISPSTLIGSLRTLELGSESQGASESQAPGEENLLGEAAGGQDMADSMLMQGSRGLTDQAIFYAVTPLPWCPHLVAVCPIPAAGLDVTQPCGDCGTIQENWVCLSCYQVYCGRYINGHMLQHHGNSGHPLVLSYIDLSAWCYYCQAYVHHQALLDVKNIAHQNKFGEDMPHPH
From the text: Tubulin and MAPs were isolated from bovine brain as described [See http://mitchison.med.harvard.edu/protocols/tubprep.html]. Whole brain and fractions from phosphocellulose chromatography were blotted for HDAC6 and acetylated α-tubulin. Cultured hippocampal neurons from dissociated 1-day old rat brains were transfected with an enhanced green fluorescent protein (EGFP)-actin construct at 4-5 days using the calcium phosphate method [E. N. Star, D. J. Kwiatkowski and V. N. Murthy, Nat. Neurosci. […] K. Miranti and M. E. Greenberg, J. Neurosci. […] Transfected cultures were allowed to grow for at least 48 h before the addition of experimental compounds.
[^3H]Acetate-incorporated histones were isolated from butyrate-treated HeLa cells as described [J. Taunton, C. […] Immunoprecipitates were incubated with acetylated histones and HDAC activity determined by scintillation counting as described [J. Taunton, C. […] TDAC assays were performed with immunoprecipitates using MAP-stabilized microtubules polymerized from MAP-rich tubulin fraction as described [C. […] Reactions were incubated (2 h) at 37° C., then incubated on ice (15 min).

histone deacetylation = experiment: acetylated lysine / acetylated histone in cells (AcLysine cytoblot, immunofluorescence, Western blot); format: cell-based, human; settings: A549 (also BS-C-1) cells, tubacin, niltubacin 2 μM, histacin 20 μM, library ~2-5 μM, 18 h
Protocol: as §1, §2, §3

[1] = listed as carboxylic acid analogue of JCWII114

C[C@@H]1NC(=O)[C@H]2CCCN2C(=O)[C@H](CCCCCC(=O)[C@@H]2CO2)NC(=O)[C@@H](C)NC1=O [HC toxin, reference compound]
mitotic abnormalities (A549 cells): caused a significant number of abnormal mitotic cells
effect on tubulin deacetylation / α-tubulin acetylation in cells (α-tubulin deacetylation): have no effect upon α-tubulin acetylation levels; also recorded: no effect on tubulin acetylation

O=C(O)CCCCCCC(=O)Nc1ccc([C@@H]2OC(c3ccc(CO)cc3)C[C@H](CSc3nc(-c4ccccc4)c(-c4ccccc4)o3)O2)cc1 (stereo partly shown) [JCWII153]
inhibition of TDAC activity of wild-type HDAC6F (HDAC6F): did not; also recorded: not inhibited by the addition of niltubacin or trapoxin
effect on histone deacetylation / lysine or histone acetylation in cells (histone deacetylation): inactivity; also recorded: had no effect on α-tubulin or histone acetylation
effect on histone deacetylation / lysine or histone acetylation in cells (histone deacetylation; [1]): did not affect histone or tubulin deacetylation
effect on tubulin deacetylation / α-tubulin acetylation in cells (α-tubulin deacetylation): inactivity; also recorded: had no effect on α-tubulin or histone acetylation
effect on tubulin deacetylation / α-tubulin acetylation in cells (α-tubulin deacetylation; [1]): did not affect histone or tubulin deacetylation

O=C(CCCCCCC(=O)Nc1ccc(C2OC(CSc3nc(-c4ccccc4)c(-c4ccccc4)o3)CC(c3ccc(CO)cc3)O2)cc1)NO (stereo not shown) [JCWII169]
potency of inducing α-tubulin acetylation relative to tubacin (α-tubulin deacetylation; AcTubulin cytoblot (enantiotubacin), cells (biotubacin)): equally as potent as tubacin
selectivity as TDAC inhibitor relative to tubacin (fold less selective) (α-tubulin deacetylation; after re-synthesis and retesting, unpublished data): ~5 fold
potency and selectivity of the enantiomers JCWII114 and JCWII169 compared (α-tubulin deacetylation; immunofluorescence and Western blot, A549 cells, 5 h or 18 h): No significant difference in selectivity or potency

O=C1N[C@@H](Cc2ccccc2)C(=O)N2CCC[C@@H]2C(=O)N[C@@H](CCCCCC(=O)[C@@H]2CO2)C(=O)N[C@H]1Cc1ccccc1 [trapoxin, trapoxin B, reference compound] (cyclo(FF[dP][Aoe]))
inhibition of TDAC activity of wild-type HDAC6F (HDAC6F): not inhibited by the addition of niltubacin or trapoxin
inhibition of TDAC activity of wild-type HDAC6F (HDAC6F; listed as trapoxin B): did not
effect on tubulin deacetylation / α-tubulin acetylation in cells (α-tubulin deacetylation): have no effect upon α-tubulin acetylation levels
